# How the values were obtained:
# PC-3 = test: cells; format: cell-based
# A549/ATCC = test: cells; format: cell-based
# COLO-205 = test: cells; format: cell-based
# A498 = test: cells; format: cell-based
# NCI-H226 = test: cells; format: cell-based
# MCF7 = test: cells; format: cell-based
# SF-539 = test: cells; format: cell-based
# HT29 = test: cells; format: cell-based
# HOP-62 = test: cells; format: cell-based
# MDA-MB-468 = test: NCI 60 cell line antiproliferative screening (SRB), Breast cancer
# MDA-MB-231/ATCC = test: as above; format: cell-based
# HCT-15 = test: cells; format: cell-based
# RPMI-8226 = test: cells; format: cell-based
# SK-OV-3 = test: cells; format: cell-based
# NCI-H322M = test: cells; format: cell-based
# HCT-116 = test: cells; format: cell-based
# SK-MEL-28 = test: cells; format: cell-based
# HS 578T = test: cells; format: cell-based
# DU-145 = test: cells; format: cell-based
# KM12 = test: cells; format: cell-based
# LOX IMIV = test: cells; format: cell-based
# NCI-H522 = test: cells; format: cell-based
# OVCAR-5 = test: cells; format: cell-based
smiles,measurement,setting,value
"O=C(CSc1nc2ccccc2c(=O)n1-c1ccc(Cl)cc1)NN=Cc1ccc(Oc2ccc(Cl)cc2)cc1 [6d, N'-(4–(4-chlorophenoxy)benzylidene)-2-((3–(4-chlorophenyl)-4-oxo-3,4-dihydroquinazolin-2-yl)thio)acetohydrazide]",GI50,"PC-3; Homo sapiens, PC-3",2.58 µM
same,inhibition at 10 µM,"PC-3; Homo sapiens, PC-3, read-out: growth inhibition % (GI%)",99.2%
same,CC50,"PC-3; Homo sapiens, PC-3, 5 doses, read-out: LC50 (the source's name)",> 100 µM
same,TGI,"PC-3; PC-3, 5 doses",9.32 µM
same,TGI,"A549/ATCC; A549/ATCC, 5 doses",14.0 µM
same,GI50,"A549/ATCC; Homo sapiens, A549",3.25 µM
same,inhibition at 10 µM,"A549/ATCC; Homo sapiens, A549, read-out: growth inhibition % (GI%)",83.5%
same,"LC50 (lethal concentration, 50% cell kill)","A549/ATCC; Homo sapiens, A549/ATCC, 5 doses",83.3 µM
same,TGI,"COLO-205; COLO 205, 5 doses",8.74 µM
same,GI50,"COLO-205; Homo sapiens, COLO 205",2.79 µM
same,inhibition at 10 µM,"COLO-205; Homo sapiens, COLO 205, read-out: growth inhibition % (GI%)",85.4%
same,LC50,"COLO-205; Homo sapiens, COLO 205, 5 doses",91.6 µM
same,TGI,"A498; A498, 5 doses",4.34 µM
same,GI50,"A498; Homo sapiens, A498",1.94 µM
same,inhibition at 10 µM,"A498; Homo sapiens, A498, read-out: growth inhibition % (GI%)",> 100%
same,CC50,"A498; Homo sapiens, A498, 5 doses, read-out: LC50 (the source's name)",9.74 µM
same,GI50,"NCI-H226; Homo sapiens, NCI-H226",2.46 µM
same,inhibition at 10 µM,"NCI-H226; Homo sapiens, NCI-H226, read-out: growth inhibition % (GI%)",24.4%
same,LC50 (NCI-60 50% lethal concentration),"NCI-H226; Homo sapiens, NCI-H226, 5 doses",33.2 µM
same,TGI,"NCI-H226; NCI-H226, 5 doses",6.59 µM
same,GI50,"MCF7; Homo sapiens, MCF7",2.01 µM
same,inhibition at 10 µM,"MCF7; Homo sapiens, MCF7, read-out: growth inhibition % (GI%)",84.5%
same,CC50,"MCF7; Homo sapiens, MCF7, 5 doses, read-out: LC50 (the source's name)",25.6 µM
same,TGI,"MCF7; MCF7, 5 doses",5.5 µM
same,GI50,"SF-539; Homo sapiens, SF-539",2.54 µM
same,inhibition at 10 µM,"SF-539; Homo sapiens, SF-539, read-out: growth inhibition % (GI%)",30.3%
same,CC50,"SF-539; Homo sapiens, SF-539, 5 doses, read-out: LC50 (the source's name)",21.5 µM
same,TGI,"SF-539; SF-539, 5 doses",6.32 µM
same,TGI,"HT29; HT29, 5 doses",11.1 µM
same,GI50,"HT29; Homo sapiens, HT-29",2.14 µM
same,inhibition at 10 µM,"HT29; Homo sapiens, HT-29, read-out: growth inhibition % (GI%)",98.2%
same,LC50 (concentration giving 50% net cell kill),"HT29; Homo sapiens, HT-29, HT29, 5 doses",> 100 µM
same,TGI,"HOP-62; HOP-62, 5 doses",4.05 µM
same,GI50,"HOP-62; Homo sapiens, HOP-62",1.69 µM
same,inhibition at 10 µM,"HOP-62; Homo sapiens, HOP-62, read-out: growth inhibition % (GI%)",67.4%
same,CC50,"HOP-62; Homo sapiens, HOP-62, 5 doses, read-out: LC50 (the source's name)",9.69 µM
same,GI50,"MDA-MB-468; Homo sapiens, MDA-MB-468",2.08 µM
same,CC50,"MDA-MB-468; Homo sapiens, MDA-MB-468, read-out: LC50",18.8 µM
same,inhibition at 10 µM,"MDA-MB-468; Homo sapiens, MDA-MB-468, read-out: growth inhibition % (GI%)",> 100%
same,TGI,"MDA-MB-468; MDA-MB-468, 5 doses",5.08 µM
same,GI50,"MDA-MB-231/ATCC; Homo sapiens, MDA-MB-231",1.79 µM
same,inhibition at 10 µM,"MDA-MB-231/ATCC; Homo sapiens, MDA-MB-231, read-out: growth inhibition % (GI%)",69.6%
same,CC50,"MDA-MB-231/ATCC; Homo sapiens, MDA-MB-231/ATCC, 5 doses, read-out: LC50 (the source's name)",8.51 µM
same,TGI,"MDA-MB-231/ATCC; MDA-MB-231/ATCC, 5 doses",3.9 µM
same,TGI,"HCT-15; HCT-15, 5 doses",7.48 µM
same,GI50,"HCT-15; Homo sapiens, HCT-15",2.41 µM
same,inhibition at 10 µM,"HCT-15; Homo sapiens, HCT-15, read-out: growth inhibition % (GI%)",89.6%
same,LC50 (concentration causing 50% net cell kill),"HCT-15; Homo sapiens, HCT-15, 5 doses",28.5 µM
same,GI50,"RPMI-8226; Homo sapiens, RPMI-8226",2.98 µM
same,inhibition at 10 µM,"RPMI-8226; Homo sapiens, RPMI-8226, read-out: growth inhibition % (GI%)",75.3%
same,CC50,"RPMI-8226; Homo sapiens, RPMI-8226, 5 doses, read-out: LC50 (the source's name)",> 100 µM
same,TGI,"RPMI-8226; RPMI-8226, 5 doses",15.8 µM
same,GI50,"SK-OV-3; Homo sapiens, SK-OV-3",3.26 µM
same,inhibition at 10 µM,"SK-OV-3; Homo sapiens, SK-OV-3, read-out: growth inhibition % (GI%)",66.2%
same,CC50,"SK-OV-3; Homo sapiens, SK-OV-3, 5 doses, read-out: LC50 (the source's name)",49.4 µM
same,TGI,"SK-OV-3; SK-OV-3, 5 doses",11.9 µM
same,TGI,NCI-H322M; 5 doses,15.0 µM
same,GI50,NCI-H322M; Homo sapiens,3.02 µM
same,CC50,"NCI-H322M; Homo sapiens, 5 doses, read-out: LC50 (the source's name)",90.8 µM
same,inhibition at 10 µM,"NCI-H322M; Homo sapiens, read-out: growth inhibition % (GI%)",< 15%
same,TGI,"HCT-116; HCT-116, 5 doses",3.74 µM
same,GI50,"HCT-116; Homo sapiens, HCT-116",1.55 µM
same,inhibition at 10 µM,"HCT-116; Homo sapiens, HCT-116, read-out: growth inhibition % (GI%)",> 100%
same,CC50,"HCT-116; Homo sapiens, HCT-116, 5 doses, read-out: LC50 (the source's name)",9.03 µM
same,GI50,"SK-MEL-28; Homo sapiens, SK-MEL-28",1.51 µM
same,inhibition at 10 µM,"SK-MEL-28; Homo sapiens, SK-MEL-28, read-out: growth inhibition % (GI%)",96.8%
same,CC50,"SK-MEL-28; Homo sapiens, SK-MEL-28, 5 doses, read-out: LC50 (the source's name)",6.01 µM
same,TGI,"SK-MEL-28; SK-MEL-28, 5 doses",3.01 µM
same,TGI,"HS 578T; HS 578T, 5 doses",6.36 µM
same,GI50,"HS 578T; Homo sapiens, Hs-578T",2.17 µM
same,inhibition at 10 µM,"HS 578T; Homo sapiens, Hs-578T, read-out: growth inhibition % (GI%)",78.6%
same,CC50,"HS 578T; Homo sapiens, HS 578T, 5 doses, read-out: LC50 (the source's name)",> 100 µM
same,TGI,"DU-145; DU-145, 5 doses",20.4 µM
same,GI50,"DU-145; Homo sapiens, DU-145",3.52 µM
same,inhibition at 10 µM,"DU-145; Homo sapiens, DU-145, read-out: growth inhibition % (GI%)",86.9%
same,CC50,"DU-145; Homo sapiens, DU-145, 5 doses, read-out: LC50 (the source's name)",> 100 µM
same,GI50,"KM12; Homo sapiens, KM12",2.04 µM
same,inhibition at 10 µM,"KM12; Homo sapiens, KM12, read-out: growth inhibition % (GI%)",82.6%
same,CC50,"KM12; Homo sapiens, KM12, 5 doses, read-out: LC50 (the source's name)",26.6 µM
same,TGI,"KM12; KM12, 5 doses",5.0 µM
same,inhibition at 10 µM,"LOX IMIV; Homo sapiens, 60 cell, read-out: growth inhibition % (GI%)",> 100%
same,GI50,"LOX IMIV; Homo sapiens, LOX IMVI",1.29 µM
same,CC50,"LOX IMIV; Homo sapiens, LOX IMVI, 5 doses, read-out: LC50 (the source's name)",5.2 µM
same,TGI,"LOX IMIV; LOX IMVI, 5 doses",2.59 µM
same,GI50,"NCI-H522; Homo sapiens, NCI-H522",2.34 µM
same,inhibition at 10 µM,"NCI-H522; Homo sapiens, NCI-H522, read-out: growth inhibition % (GI%)",79.3%
same,CC50,"NCI-H522; Homo sapiens, NCI-H522, 5 doses, read-out: LC50 (the source's name)",42.6 µM
same,TGI,"NCI-H522; NCI-H522, 5 doses",8.31 µM
same,GI50,"OVCAR-5; Homo sapiens, OVCAR-5",2.27 µM
same,inhibition at 10 µM,"OVCAR-5; Homo sapiens, OVCAR-5, read-out: growth inhibition % (GI%)",29.4%
same,CC50,"OVCAR-5; Homo sapiens, OVCAR-5, 5 doses, read-out: LC50 (the source's name)",32.2 µM
same,TGI,"OVCAR-5; OVCAR-5, 5 doses",6.44 µM

# — paper PMC9518264, “Design and synthesis of novel quinazolinone-based derivatives as EGFR inhibitors with antitumor activity” (Journal of Enzyme Inhibition and Medicinal Chemistry, 2022)
